Measured values from US7569550B2, “14 and 15 membered ring compounds” (Glaxo Group Limited, priority 2003, dated 2009).
Where a name gives a salt, the structure may show the parent alone.

Experiments:
Assay in all cases: MIC, standard broth dilution method in microtitre
Assay type in all cases: cell-based
E. faecalis ATCC 29212 = conditions: Enterococcus faecalis, ATCC29212
Description: (§1) Using a standard broth dilution method in microtitre, compounds were tested for antibacterial activity. The compounds in the above examples gave minimum inhibitory concentrations (MICs) less than 1 microgram per millilitre against erythromycin-sensitive and erythromycin-resistant strains of Streptococcus pneumoniae and Streptococcus pyogenes.
(§2) In addition, the MIC (μg/ml) of test compounds against various organisms was determined including:
(§3) S. aureus Smith ATCC 13709, S. pneumoniae SP030, S. pyogenes 3565, E. faecalis ATCC 29212, H. influenzae ATCC 49247, M. catarrhalis ATCC 23246.

H. influenzae ATCC 49247 = conditions: Haemophilus influenzae, ATCC49247; H. influenzae ATCC 49247; read-out: MIC
Description: as §1, §2, §3

[1] = system: M. catarrhalis ATCC 23246; conditions: Moraxella catarrhalis, ATCC23246
Description: as §1, §2, §3

[2] = system: S. aureus Smith ATCC 13709; conditions: Staphylococcus aureus, ATCC13709
Description: as §1, §2, §3

S. pneumoniae SP030 = conditions: Streptococcus pneumoniae
Description: as §1, §2, §3

S. pyogenes 3565 = conditions: Streptococcus pyogenes
Description: as §1, §2, §3

[3] = system: erythromycin resistant strains of Streptococcus pneumoniae
Description: as §1

[4] = system: erythromycin resistant strains of Streptococcus pyogenes
Description: as §1

| Compound | MIC (E. faecalis ATCC 29212) [µg/mL] | MIC (H. influenzae ATCC 49247) [µg/mL] | MIC [1] [µg/mL] | MIC [2] [µg/mL] | MIC (S. pneumoniae SP030) [µg/mL] | MIC (S. pyogenes 3565) [µg/mL] | MIC [3] [µg/mL] | MIC [4] [µg/mL] |
| --- | --- | --- | --- | --- | --- | --- | --- | --- |
| CC[C@H]1OC(=O)[C@H](C)[C@@H](O[C@H]2C[C@@](C)(OC)[C@@H](OCCCN(C)CCOc3cc4c5c(c3)c(=O)c(C(=O)O)cn5CCC4)[C@H](C)O2)[C@H](C)[C@@H](O[C@@H]2O[C@H](C)C[C@H](N(C)C)[C@H]2O)[C@](C)(OC)C[C@@H](C)C(=O)[C@@H](C)[C@H]2NC(=O)O[C@@]21C [Example 28, 4″-O-{3-[[2-(2-Carboxy-1-oxo-6,7-dihydro-1H,5H-pyrido[3,2,1-ij]quinolin-9-yloxy)-ethyl]-methylamino]-propyl}-6-O-methyl-11-desoxy-11-(R)-amino-erythromycin A 11,12-carbamate formate] | ≤ 1 | ≤ 4 | ≤ 4 | ≤ 1 | ≤ 1 | ≤ 1 | ≤ 1 | ≤ 1 |
| CC[C@@H]1OC(=O)[C@H](C)[C@H](O[C@@H]2C[C@](C)(OC)[C@H](OCCCN(C)CCNc3nc4c(cc3F)c(=O)c(C(=O)O)cn4CC)[C@H](C)O2)[C@@H](C)[C@H](O[C@H]2O[C@@H](C)C[C@@H](N(C)C)[C@H]2O)[C@](C)(OC)C[C@H](C)C(=O)[C@H](C)[C@H]2OC(=O)O[C@@]12C [Example 15] | ≤ 1 | ≤ 4 | ≤ 4 | ≤ 1 | ≤ 1 | ≤ 1 | ≤ 1 | ≤ 1 |
| CC[C@H]1OC(=O)[C@H](C)[C@@H](O[C@H]2C[C@@](C)(OC)[C@@H](OCCCNCCNc3nc4c(cc3F)c(=O)c(C(=O)O)cn4CC)[C@H](C)O2)[C@H](C)[C@@H](O[C@@H]2O[C@H](C)CC(N(C)C)[C@H]2O)[C@](C)(OC)C[C@@H](C)C(=O)[C@@H](C)[C@H]2NC(=O)O[C@@]21C (stereo partly drawn) [Example 21, 4″-O-{3-[2-(3-Carboxy-1-ethyl-6-fluoro-4-oxo-1,4-dihydro-[1,8]naphthyridin-7-ylamino)-ethylamino]-propyl}-6-O-methyl-11-desoxy-11-(R)-amino-erythromycin A 11,12-carbamate formate] | ≤ 1 | ≤ 4 | ≤ 4 | ≤ 1 | ≤ 1 | ≤ 1 | ≤ 1 | ≤ 1 |
| CC[C@H]1OC(=O)[C@H](C)[C@@H](O[C@H]2C[C@@](C)(OC)[C@@H](OCCCN(C)CCNc3nc4c(cc3F)c(=O)c(C(=O)O)cn4CC)[C@H](C)O2)[C@H](C)[C@@H](O[C@@H]2O[C@H](C)C[C@H](N(C)C)[C@H]2O)[C@](C)(OC)C[C@@H](C)C(=O)[C@@H](C)[C@H]2NC(=O)O[C@@]21C [Example 27, 4″-O-{3-[[2-(3-Carboxy-1-ethyl-6-fluoro-4-oxo-1,4-dihydro-[1,8]naphthyridin-7-ylamino)-ethyl]-methylamino]-propyl}-6-O-methyl-11-desoxy-11-(R)-amino-erythromycin A 11,12-carbamate formate] | ≤ 1 | ≤ 4 | ≤ 4 | ≤ 1 | ≤ 1 | ≤ 1 | ≤ 1 | ≤ 1 |
